Measured values: EP0221719A2, “Novel cephalosporin derivatives, processes for their preparation and pharmaceutical compositions containing them” (BIOGAL GYOGYSZERGYAR, priority 1985, dated 1987)
Values after ≈ are worked out from the molar mass of the structure shown. Counter-ions that a name gives are not always drawn. Like-named read-outs stand apart in the source and are kept apart here.

Assays:
[1] = system: Pseudomonas aeruginosa; assay: microbe, parasite or virus in culture; details: 24 h
[2] = system: Salmonella typhi murium and Proteus vulgaris; assay: In vivo effectivity in artificially infected mice (protection test); details: for living animal / group 1st day / living animal / group 3rd day: groups of 5 infected mice; for ED50: sc
[3] = system: Proteus vulgaris XL; assay: MIC determination (antibacterial activity in vitro); assay type: cell-based; details: after 24 hours
[4] = system: Escherichia coli R-222; assay: as above; assay type: cell-based; details: R222, 24 h
[5] = system: Escherichia coli R-15; assay: as above; assay type: cell-based; details: R15, after 24 hours
[6] = system: Streptococcus haemolyticus Robb; assay: as above; assay type: cell-based; details: after 24 hours
[7] = system: Staphylococcus aureus Smith; assay: as above; assay type: cell-based; details: after 24 hours
[8] = system: Clostridium perfringens Cp.; assay: microbe, parasite or virus in culture; assay type: cell-based; details: 24 h
[9] = system: Staphylococcus aureus 53; assay: MIC determination (antibacterial activity in vitro); assay type: cell-based; details: after 24 hours
[10] = system: Escherichia coli K12; assay: as above; assay type: cell-based; details: after 24 hours
[11] = system: Streptococcus haemolyticus A118; assay: as above; assay type: cell-based; details: after 24 hours
[12] = system: Streptococcus haemolyticus Pneumo; assay: as above; assay type: cell-based; details: after 24 hours
[13] = system: Escherichia coli 6R; assay: as above; assay type: cell-based; details: 24 h
[14] = system: Pseudomonas pyocyanea NTCT 10.490; assay: as above; assay type: cell-based; details: Pseudomonas aeruginosa, NTCT10.490, after 24 hours
Method: The MIC values expressed in mcg./mi. of SZMFO 110 after 24 hours are contained in Table 1.

[15] = system: Klebsiella sp. ATCC 10031; assay: as above; assay type: cell-based; details: ATCC10031, after 24 hours
[16] = system: Escherichia coli poliresistens; assay: as above; assay type: cell-based; details: 24 h
[17] = system: Bacillus subtilis ATCC 6633; assay: as above; assay type: cell-based; details: ATCC6633, after 24 hours
[18] = system: Salmonella typhi murium; assay: as above; assay type: cell-based; details: Salmonella enterica, 24 h
[19] = system: Staphylococcus aureus 1110; assay: as above; assay type: cell-based; details: after 24 hours
[20] = system: Staphylococcus epidermidis A CC I-12228; assay: as above; assay type: cell-based; details: ACCI12228, after 24 hours
[21] = system: Shigella sonnei; assay: as above; assay type: cell-based; details: after 24 hours

CO/N=C(\C(=O)N[C@@H]1C(=O)N2C(C(=O)O)=C(COC(C)=O)CS[C@H]12)c1csc(N)n1 [Cefotaxime, 7-[2-(2-amino-4-thiazolyl)-2-methoxy-iminoacetamido]-cephalosporanic acid]
MIC [1]: 32 µg/mL (≈ 70.3 µM)

CCN1CCN(C(=O)N[C@@H](C(=O)N[C@@H]2C(=O)N3C(C(=O)O)=C(CSc4nnnn4C)CS[C@H]23)c2ccc(O)cc2)C(=O)C1=O [Cefoperazone, 7-[D-(-)-α-(4-ethyl-2,3-dioxo-1-piperazinecarboxamido)-α-(4-hydroxyphenyl)-acetamido]-3-[[(1-methyl-1H-tetranol-5-yl)thio]methyl]-ceph-3-em-4-carboxylic acid, reference compound]
living animal / group 1st day ([2]; 0.2 mg./kg. subcutaneously): 1 | living animal / group 3rd day ([2]; 0.2 mg./kg. subcutaneously): 1 | living animal / group 1st day ([2]; 1 mg./kg. subcutaneously): 4 | living animal / group 3rd day ([2]; 1 mg./kg. subcutaneously): 1 | living animal / group 1st day ([2]; 5 mg./kg. subcutaneously): 5 | living animal / group 3rd day ([2]; 5 mg./kg. subcutaneously): 3 | living animal / group 1st day ([2]; 25 mg./kg. subcutaneously): 4 | living animal / group 3rd day ([2]; 25 mg./kg. subcutaneously): 4 | living animal / group 1st day ([2]; 100 mg./kg. subcutaneously): 5 | living animal / group 3rd day ([2]; 100 mg./kg. subcutaneously): 4 | ED50 ([2]; 24 h, read-out: ED50 1st day): 0.44 mg/kg | ED50 ([2]; 72 h, read-out: ED50 3rd day): 3.7 mg/kg | MIC [1]: 8 µg/mL (≈ 12.4 µM)

CO/N=C(\C(=O)N[C@@H]1C(=O)N2C(C(=O)O)=C(CSc3nnnn3C)CS[C@H]12)c1csc(N)n1 [Cefmenoxime, (6R,7R)-7-/2-(2-amino-4-thiazolyl)glyoxylamido/-3-//(1-methyl-1H-tetrazol-5-yl)thio/methyl/-8-oxo-5-thia--1-azabicyclo/4.2.0/oct-2-ene-2-carboxylic acid 7^2-(Z)-(O-methyloxime)]
MIC [1]: 64 µg/mL (≈ 125 µM)

CC(C)(ON=C(C(=O)NC1C(=O)N2C(C(=O)[O-])=C(C[n+]3ccccc3)CSC12)c1csc(N)n1)C(=O)O [Ceftazimide, 1-//(6R,7R)-7-/2-(2-amino-4-thiazolyl)glyoxylamido/--2-carboxy-8-oxo-5-thia-1-azabicyclo/4.2.0/oct-2-ene--3-yl/methyl/pyridinium hydroxide inner salt 7^2-(Z)-/0-(1-carboxy-1-methylethyl)oxime/]
MIC [1]: 4 µg/mL

CON=C(C(=O)NC1C(=O)N2C(C(=O)O)=C(CSc3nnc(S)s3)CSC12)c1csc(N)n1 (stereo not drawn) [SZMFO 110, 7β-[2-(2-aminothiazol-4-yl)-(Z)-2-methoxyimino-acetamido]-3-[(2-mercapto-1.3.4-thiadiazol-5-yl)thiomethyl]-ceph-3-em-4-carboxylic acid]
MIC [3]: 0.007 µg/mL (≈ 0.0128 µM) | MIC [4]: 0.03 µg/mL (≈ 0.055 µM) | MIC [5]: 0.16 µg/mL (≈ 0.293 µM) | MIC [6]: 0.03 µg/mL (≈ 0.055 µM) | MIC [7]: 1.25 µg/mL (≈ 2.29 µM) | MIC [8]: 0.004 µg/mL (≈ 0.00733 µM) | MIC [9]: 1.6 µg/mL (≈ 2.93 µM) | MIC [10]: 0.03 µg/mL (≈ 0.055 µM) | MIC [11]: 0.03 µg/mL (≈ 0.055 µM) | MIC [12]: 0.03 µg/mL (≈ 0.055 µM) | MIC [13]: 0.25 µg/mL (≈ 0.458 µM) | living animal / group 1st day ([2]; 0.2 mg./kg. subcutaneously): 0 | living animal / group 3rd day ([2]; 0.2 mg./kg. subcutaneously): 0 | living animal / group 1st day ([2]; 1 mg./kg. subcutaneously): 4 | living animal / group 3rd day ([2]; 1 mg./kg. subcutaneously): 4 | living animal / group 1st day ([2]; 5 mg./kg. subcutaneously): 5 | living animal / group 3rd day ([2]; 5 mg./kg. subcutaneously): 4 | living animal / group 1st day ([2]; 25 mg./kg. subcutaneously): 5 | living animal / group 3rd day ([2]; 25 mg./kg. subcutaneously): 5 | living animal / group 1st day ([2]; 100 mg./kg. subcutaneously): 5 | living animal / group 3rd day ([2]; 100 mg./kg. subcutaneously): 4 | ED50 ([2]; 24 h, read-out: ED50 1st day): 0.62 mg/kg | ED50 ([2]; 72 h, read-out: ED50 3rd day): 0.62 mg/kg | MIC [14]: 0.31 µg/mL (≈ 0.568 µM) | MIC [15]: 0.007 µg/mL (≈ 0.0128 µM) | MIC [16]: 0.16 µg/mL (≈ 0.293 µM) | MIC [17]: 0.08 µg/mL (≈ 0.147 µM) | MIC [18]: 0.06 µg/mL (≈ 0.11 µM) | MIC [19]: 6.2 µg/mL (≈ 11.4 µM) | MIC [20]: 0.6 µg/mL (≈ 1.1 µM) | MIC [1]: 0.31 µg/mL (≈ 0.568 µM) | MIC [21]: 0.06 µg/mL (≈ 0.11 µM)

CO/N=C(\C(=O)N[C@@H]1C(=O)N2C(C(=O)O)=CCS[C@H]12)c1csc(N)n1 [Ceftizoxime, (6R,7R)-7-/2-(2-amino-4-thiazolyl)glyoxylamido/-8--oxo-5-thia-l-azabicyclo/4.2.0/oct-2-ene-2-carboxylic acid 7^2-(Z)-(0-methyloxime)]
MIC [1]: 64 µg/mL (≈ 167 µM)
